From patent EP1541694A1, “Methods of identifying, selecting and/or characterizing compounds which modulate the activity of a Src family kinase” (Sirenade Pharmaceuticals AG, priority 2003, dated 2005)

How the values were obtained:
Abl-TQ = conditions: cited from earlier work
[1] = system: Src-TQ/YF expressing cell line ZM170.21; experiment: Suppression of tet-induced phenotype changes (cell scattering) in suspension, Ultra Low Attachment plates; type: cell-based, human; conditions: ZM170.21 (Src-TQ/YF) in suspension, Ultralow Attachment Plates
Description: (§1) Cells were seeded into 24-well or 96-well "Ultra Low Attachment" plates (cat.no.: 3473, Costar Corning Corp., Acton, MA, USA). These plates are coated with a covalently bound hydrogel layer that prevents cellular attachment to the polystyrene surface of the wells. As the cells were not attached to these wells, a medium change was impossible here. However, the phenotypes were tested in full serum-containing medium in the absence or presence of EGF, PDGF-BB or HGF as detailed above. Tet-induction was also started the day after seeding.
(§2) Largely irrespective of the cell numbers per well, the cells of all cell lines were in suspension and formed one or few very condensed/compact, opaque, rod-, disc- or kidney-shaped aggregates with a smooth surface, in which individual cells could not be discerned. Phenotype changes became apparent ~24 h after tet induction in ZM77 and ZM170 cell lines only, and Δpt(-tet →+tet)max was reached after ~2 days. In these cell lines Src-YF or Src-TQ/YF expression, respectively, induces scattering of the cells. Many cells are floating in the medium individually or in small clusters and the remaining large aggregate(s) are irregular-shaped and rather loose than compact; individual cells can easily be discerned and thus, the surfaces of these aggregates are rough as with bunches of grapes (Fig.14a,b). This biological response was readily observed with or without any of the above growth factors, wherefore normal growth medium without any additional growth factor was subsequently used in this assay type.
(§3) To that end, the test compounds PP1-Chr., SU6656 and PP2 were individually added to the cells together with tet, and the development of the phenotype changes in the presence of these compounds was monitored subsequently in direct comparison with tet-induced cells that received no compound (Fig.14c-j). The compounds were also added to the cells without tet-induction of Src/ Src mutant expression as controls for non-specific/ toxicity effects. The experiments were performed with several ZM77 cell lines.

[2] = system: Src-YF expressing ZM77 cell lines; experiment: as above; type: cell-based, human; conditions: Ultralow Attachment Plates
Description: as §1, §2, §3

[3] = system: Src-TQ/YF expressing cell line ZM170.21; experiment: CTB and ATP cell viability/metabolic activity assays, suppression of tet-induced reduction; type: cell-based, human; conditions: ZM170.21 (Src-TQ/YF), 5µM PP2 + 10µM PP1-Chr., 40µM D5, 1µM 17-AAG, 1µM radicicol
Source text: (§4) To proof the concept of the assay platform according to the invention in a quantitative manner with a highly parallel readout, the following cell viability / metabolic activity assays from Promega according to the manufacturer's protocols: "CellTiter 96 AQueous One Solution Cell Proliferation Assay (MTS)", CellTiter-BlueTM Cell Viability Assay (CTB), and the ATP-status assay "CellTiter-Glo Luminescent Cell Viability Assay" (ATP) were used to obtain quantitative values reflecting (aspects of) the phenotype changes. The cells were seeded into white-walled/ clear bottom 96-well plates ["MICROTEST" by Falcon, cat.no. 353947] for MTS and ATP assays and in black-walled/ clear bottom 96-well plates ["MICROTEST" by Falcon, cat.no. 353948] for the CTB assay at the appropriate densities. Tet and/or compound addition (where applicable) was started the next day. Measurements were taken 1,2 and 3 days later using the Wallac Victor^2TM multilabel plate reader (Perkin Elmer). Absorbance was measured at 490nm (MTS). Luminescence mode was used for the ATP assay. For CTB fluorescence excitation wavelength was 550nm (filter: 550(20)nm), emission wavelength was 590 nm (filter: 590(20)nm). Indicated are the means of sixplicate determinations (from 6 independent wells) in the absence of tet (mean(-tet)) and in the presence of tet (mean(+tet)), followed by the respective corresponding standard deviations SD(-tet) and SD(+tet). The cell viability/ metabolic activity upon tet-induction in relation to the cell viability/ metabolic activity without tet ("+/tet(means") is calculated from the quotient of the means of the measured cell viability/ metabolic activity signals from i) cells incubated without tet and ii) cells incubated with tet. […] Furthermore indicated are the corresponding Z' values. In the present context: Z'=1-(3(SD(+tet)+SD(-tet))/ |mean(+tet)-mean(-tet)|. […] SD=0) (Zhang et al., 1999). Z'≥0 is required for an assay useful for a screening approach; a Z'≥0.5 is considered excellent for an assay with regard to high throughput screening. […] Three more parameters reflecting the effects of compounds on cell viability/metabolic activity in these assays are indicated in Tab.3 and Tab.4: Toxicity reflects the nonspecific (i.e. irrespective of tet-induced Src/ Src mutant expression) effects of a compound on the viability/ metabolic activity of the cells. It is calculated as toxicity=1-mean(-tet, compound)/mean(-tet,(DMSO)). […] The suppression value quantifies the potency of a compound with respect to suppression of the tet-induced change in cell viability / metabolic activity. Usually, tet-induction reduces cell viability / metabolic activity due to Src activity and addition of a Src inhibitory compound mitigates this reduction. A suppression of 100% means that the compound totally suppresses the tet-induced decrease in cell viability / metabolic activity (as in the absence of tet). The following formula is employed: Suppres-sion=([…]). Finally, the corresponding Z' value is calculated as follows: Z'(suppression)=1- 3([…]). The factor Qtox corrects the means and SD determined in the absence of a compound for the (nonspecific) toxicity effect of the respective compound, which would otherwise overlay and obscure the specific suppression, if toxicity is not neglectable. […] On each day 4 measurements are taken (1, 2, 3 and 4 h after the addition of the CTB assay reagents). […]

[4] = system: Src-YF expressing cell line ZM77.8; experiment: as above; type: cell-based, human; conditions: ZM77.8 (Src-YF), 5µM PP2 + 10µM PP1-Chr., 40µM D5, 1µM 17-AAG, 1µM radicicol
Source text: as §4

[5] = system: Src family kinases when they carry the respective TQ mutations; conditions: cited from earlier work
[6] = system: cell line ZM76.3 (Src-KA); experiment: CTB cell viability assay, suppression of tet-induced reduction; type: cell-based, human; conditions: ZM76.3, CTB assay
Source text: To proof the concept of the assay platform according to the invention in a quantitative manner with a highly parallel readout, the following cell viability / metabolic activity assays from Promega according to the manufacturer's protocols: "CellTiter 96 AQueous One Solution Cell Proliferation Assay (MTS)", CellTiter-BlueTM Cell Viability Assay (CTB), and the ATP-status assay "CellTiter-Glo Luminescent Cell Viability Assay" (ATP) were used to obtain quantitative values reflecting (aspects of) the phenotype changes. The cells were seeded into white-walled/ clear bottom 96-well plates ["MICROTEST" by Falcon, cat.no. […] Measurements were taken 1,2 and 3 days later using the Wallac Victor^2TM multilabel plate reader (Perkin Elmer). Absorbance was measured at 490nm (MTS). Luminescence mode was used for the ATP assay. For CTB fluorescence excitation wavelength was 550nm (filter: 550(20)nm), emission wavelength was 590 nm (filter: 590(20)nm). […] The cell viability/ metabolic activity upon tet-induction in relation to the cell viability/ metabolic activity without tet ("+/tet(means") is calculated from the quotient of the means of the measured cell viability/ metabolic activity signals from i) cells incubated without tet and ii) cells incubated with tet. […] It is calculated as toxicity=1-mean(-tet, compound)/mean(-tet,(DMSO)). […]

[7] = system: Src-YF expressing ZM77 cell lines; experiment: Suppression of tet-induced phenotype changes, evaluated by eye/microscope, normal cell culture plates; type: cell-based, human; conditions: adherent, serum-containing medium
Description: Phenotype changes -tet → +tet were evaluated in 24-well plates (Nunc; cat.no. 143982) under the following several different growth conditions to identify the strongest possible response (Δpt(-tet→+tet)max) 1. full (10% serum containing) growth medium a) without any growth factor supplement (-), b) with epidermal growth factor (EGF; 100ng/ml) (cat.no. 115, Research Diagnostics Inc. (RDI), Flanders, NJ, USA) or c) platelet derived growth factor type BB (PDGF-BB; 30ng/ml) (cat.no. 114b, RDI) or d) hepatocyte growth factor (HGF; 20ng/ml) (RDI, cat.no.300-010), or 2. serum-free medium a) - or b) +EGF or c) +PDGF or d) +HGF. In all cases, cells were first seeded into standard 24-well or 96-well plates (Nunc) in full growth medium. The cell number seeded per well was also varied to identify the most suitable cell densities producing Δpt(-tet→+tet)max. […]
To that end, the test compounds PP1-Chr., PP2 (cat.no. 529573, Calbiochem) and SU6656 (cat.no. 572635, Calbiochem) (see Fig.9p for chemical structures) were individually added to the cells together with tet, and the development of the phenotype changes in the presence of these compounds was monitored subsequently in direct comparison with cells that received no compound or only vehicle (0.2% DMSO) together with tet induction. […]

SMILES: Cc1ccc(NC(=O)c2ccc(CN3CCN(C)CC3)cc2)cc1Nc1nccc(-c2cccnc2)n1 [Gleevec®]
- inhibition of Abl-TQ (Abl-TQ): does not inhibit

SMILES: C=CCNC1=C2C[C@@H](C)C[C@H](OC)[C@H](O)[C@@H](C)/C=C(\C)[C@H](OC(N)=O)[C@@H](OC)/C=C\C=C(/C)C(=O)NC(=CC1=O)C2=O [17-AAG]
- suppression of tet-induced phenotype (cell scattering) [1]: suppress to a large extent
- suppression of tet-induced phenotype changes (cell scattering) [2]: suppress to a large extent
- suppression of the +/-tet(means)-values [3]: equally effective
- suppression of the tet-induced reductions of the cell viability/ metabolic activity (+/-tet(means)-values) [4]: equally effective

SMILES: Cc1ccc(-c2nn(C(C)(C)C)c3ncnc(N)c23)cc1 [PP1]
- inhibition of Src family kinases carrying the TQ mutations [5]: do not inhibit

SMILES: C[C@@H]1C[C@H]2O[C@@H]2/C=C\C=C\C(=O)Cc2c(Cl)c(O)cc(O)c2C(=O)O1 [Radicicol, radicicol]
- suppression of tet-induced phenotype (cell scattering) [1]: suppress to a large extent
- suppression of tet-induced phenotype changes (cell scattering) [2]: suppress to a large extent
- suppression of the +/-tet(means)-values [3]: equally effective
- suppression of the tet-induced reductions of the cell viability/ metabolic activity (+/-tet(means)-values) [4]: equally effective
- suppression of the Src-KA-induced phenotype [6]: effectively suppressing

SMILES: CN(C)S(=O)(=O)c1ccc2c(c1)/C(=C/c1cc3c([nH]1)CCCC3)C(=O)N2 [SU6656]
- suppression of tet-induced phenotype changes [7]: partially suppressed
- suppression of tet-induced phenotype changes (cell scattering) [2]: partially suppressed
